Data: article PMC5590646 (Biochemistry, 2015)
Read-outs that look alike come from different tables or passages of the source. Marks after values point to notes of the source that are not given here.

Assays:
[1] = system: PR20; conditions: darunavir; cited from earlier work
[2] = system: PR; conditions: cited from earlier work
[3] = target: PR20; conditions: read-out: inhibition constant Ki; cited from earlier work
[4] = system: TFR-PR precursor; conditions: cited from earlier work; for IC50: read-out: IC50 for inhibition of autoprocessing
[5] = target: PR (pseudo-wild-type mature HIV-1 protease); conditions: cited from earlier work
[6] = system: PR20; experiment: DSC thermal stabilisation by inhibitor; assay type: binding, HIV-1; conditions: for ΔTm of PR20 smaller than that of PR20^PR-123: DSC, PR20 vs PR20^PR-123
[7] = system: TFR-PR20 precursor; conditions: read-out: IC50 for inhibition of autoprocessing; cited from earlier work

In the case of `CC(C)CN(C[C@@H](O)[C@H](Cc1ccccc1)NC(=O)O[C@H]1CO[C@H]2OCC[C@H]21)S(=O)(=O)c1ccc(N)cc1` [darunavir], the “ΔTm (with inhibitor), DSC” value [1] is listed as 5.3 ^b °C, the “ΔTm (with inhibitor), DSC” value ([2]; darunavir) is listed as 22.4 ^c °C and the Ki [3] is listed as 41 ± 10 nM. The “concentration that completely inhibits autoprocessing” value [4] was 1 to 3 µM, the IC50 [4] was 1000 to 2000 nM and the Ki ([5]; read-out: inhibition constant Ki, darunavir, ref refs and [50]) was ≤ 0.01 nM. For the same molecule, the “ΔTm of PR20 smaller than that of PR20^PR-123” value [6] was 9–11 °C.
In the case of `CC(C)(C)NC(=O)[C@@H]1C[C@@H]2CCCC[C@@H]2CN1C[C@@H](O)[C@H](Cc1ccccc1)NC(=O)[C@H](CC(N)=O)NC(=O)c1ccc2ccccc2n1` [saquinavir], the “ΔTm (with inhibitor), DSC” value ([2]; saquinavir) is listed as 19.3 ^d °C, the Ki [3] is listed as 930 ± 93 nM and the “concentration that completely inhibits autoprocessing” value [4] is listed as 1 to 3 µM. For the same molecule, the IC50 [4] was 1000 to 2000 nM, the Ki ([5]; read-out: inhibition constant Ki, saquinavir) was 0.28 ± 0.02 nM and the “ΔTm of PR20 smaller than that of PR20^PR-123” value [6] was 9–11 °C. For the same molecule, the “ΔTm (with inhibitor), DSC” value ([6]; PR20, saquinavir, 2fold molar excess of inhibitor over dimer, buffer A) was 2.9 °C and the IC50 [7] was > 150000 nM.
